# From ChEMBL document CHEMBL2029234, “Sulfonyl-morpholino-pyrimidines: SAR and development of a novel class of selective mTOR kinase inhibitor” (Bioorg Med Chem Lett, 2012)
# What was measured:
# [1] = Inhibition of Akt Ser473 phosphorylation in human MDA-MB-468 cells after 2 hrs; assay type: cell-based; details: MDA-MB-468, 2 h
# [2] = Inhibition of Cytochrome P450; assay type: ADME
# [3] = Plasma clearance in iv dosed rat; assay type: ADME, organism-based
# [4] = Oral bioavailability in rat; assay type: ADME, organism-based; details: in vivo
# [5] = target: Voltage-gated inwardly rectifying potassium channel KCNH2 (Homo sapiens, UniProt Q12809)
# physchem [6] = details: buffer, pH 7.4
# [7] = target: Serine/threonine-protein kinase mTOR (Homo sapiens, UniProt P42345); test: Inhibition of recombinant FLAG-tagged mTOR kinase expressed in HEK293 cells using Biotin-Ahx-Lys-Lys-Ala-Asn-Gln-Val-Phe-Leu-Gly-Phe-Thr-Tyr-Val-Ala-Pro-Ser-Val-Leu-Glu-Ser-Val-Lys-Glu-NH2 as substrate after 90 mins
# [8] = target: Phosphatidylinositol 4,5-bisphosphate 3-kinase catalytic subunit alpha isoform (Homo sapiens, UniProt P42336); test: Inhibition of human recombinant PI3Kalpha expressed in baculovirus system using PI(4,5)P2 as substrate after 20 mins
# physchem [9] = details: aqueous, pH 7.4
# [10] = Fraction unbound in rat plasma; assay type: ADME, cell-free
# Cytochrome P450 2C9 = Cytochrome P450 2C9 (Homo sapiens, UniProt P11712); test: Inhibition of CYP2C9; assay type: ADME
# [11] = Volume of distribution in iv dosed rat; assay type: ADME, organism-based; details: in vivo
# [12] = Apparent permeability from apical to basal side of MDCK cells; assay type: ADME, cell-based, Canis lupus familiaris; details: dog
# [13] = Apparent permeability from basal to apical side of MDCK cells; assay type: ADME, cell-based, Canis lupus familiaris; details: dog
# Phosphatidylinositol 4,5-bisphosphate 3-kinase catalytic subunit alpha isoform, sequence (P42336 whole entry, canonical isoform): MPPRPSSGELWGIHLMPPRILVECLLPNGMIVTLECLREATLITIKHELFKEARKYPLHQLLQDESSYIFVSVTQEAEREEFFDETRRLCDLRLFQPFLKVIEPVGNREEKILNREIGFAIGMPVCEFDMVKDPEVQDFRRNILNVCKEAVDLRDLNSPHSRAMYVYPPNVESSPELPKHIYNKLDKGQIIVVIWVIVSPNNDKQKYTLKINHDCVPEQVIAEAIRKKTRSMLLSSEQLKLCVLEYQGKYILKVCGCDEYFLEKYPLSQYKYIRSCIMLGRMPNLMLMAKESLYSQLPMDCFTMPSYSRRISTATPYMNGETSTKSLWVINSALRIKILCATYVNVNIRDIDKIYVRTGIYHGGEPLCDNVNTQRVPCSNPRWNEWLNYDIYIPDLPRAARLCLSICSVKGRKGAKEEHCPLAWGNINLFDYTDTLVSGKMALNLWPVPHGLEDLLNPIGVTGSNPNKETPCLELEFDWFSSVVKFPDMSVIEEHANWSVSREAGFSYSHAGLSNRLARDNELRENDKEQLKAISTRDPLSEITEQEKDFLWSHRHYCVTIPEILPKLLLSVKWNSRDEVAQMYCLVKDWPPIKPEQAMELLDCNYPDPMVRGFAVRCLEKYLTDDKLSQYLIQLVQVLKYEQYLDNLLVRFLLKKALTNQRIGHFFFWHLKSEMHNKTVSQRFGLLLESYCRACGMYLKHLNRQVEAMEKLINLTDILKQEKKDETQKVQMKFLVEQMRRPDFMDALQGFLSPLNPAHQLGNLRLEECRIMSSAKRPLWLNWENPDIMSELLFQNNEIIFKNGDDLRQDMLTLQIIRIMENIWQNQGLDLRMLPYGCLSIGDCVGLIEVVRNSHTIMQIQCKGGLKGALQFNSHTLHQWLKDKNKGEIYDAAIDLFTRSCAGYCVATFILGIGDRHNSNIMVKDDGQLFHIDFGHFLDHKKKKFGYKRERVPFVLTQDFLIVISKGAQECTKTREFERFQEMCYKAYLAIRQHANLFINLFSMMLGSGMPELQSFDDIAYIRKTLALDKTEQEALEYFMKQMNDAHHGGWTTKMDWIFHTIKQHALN
# Voltage-gated inwardly rectifying potassium channel KCNH2, sequence (Q12809 whole entry): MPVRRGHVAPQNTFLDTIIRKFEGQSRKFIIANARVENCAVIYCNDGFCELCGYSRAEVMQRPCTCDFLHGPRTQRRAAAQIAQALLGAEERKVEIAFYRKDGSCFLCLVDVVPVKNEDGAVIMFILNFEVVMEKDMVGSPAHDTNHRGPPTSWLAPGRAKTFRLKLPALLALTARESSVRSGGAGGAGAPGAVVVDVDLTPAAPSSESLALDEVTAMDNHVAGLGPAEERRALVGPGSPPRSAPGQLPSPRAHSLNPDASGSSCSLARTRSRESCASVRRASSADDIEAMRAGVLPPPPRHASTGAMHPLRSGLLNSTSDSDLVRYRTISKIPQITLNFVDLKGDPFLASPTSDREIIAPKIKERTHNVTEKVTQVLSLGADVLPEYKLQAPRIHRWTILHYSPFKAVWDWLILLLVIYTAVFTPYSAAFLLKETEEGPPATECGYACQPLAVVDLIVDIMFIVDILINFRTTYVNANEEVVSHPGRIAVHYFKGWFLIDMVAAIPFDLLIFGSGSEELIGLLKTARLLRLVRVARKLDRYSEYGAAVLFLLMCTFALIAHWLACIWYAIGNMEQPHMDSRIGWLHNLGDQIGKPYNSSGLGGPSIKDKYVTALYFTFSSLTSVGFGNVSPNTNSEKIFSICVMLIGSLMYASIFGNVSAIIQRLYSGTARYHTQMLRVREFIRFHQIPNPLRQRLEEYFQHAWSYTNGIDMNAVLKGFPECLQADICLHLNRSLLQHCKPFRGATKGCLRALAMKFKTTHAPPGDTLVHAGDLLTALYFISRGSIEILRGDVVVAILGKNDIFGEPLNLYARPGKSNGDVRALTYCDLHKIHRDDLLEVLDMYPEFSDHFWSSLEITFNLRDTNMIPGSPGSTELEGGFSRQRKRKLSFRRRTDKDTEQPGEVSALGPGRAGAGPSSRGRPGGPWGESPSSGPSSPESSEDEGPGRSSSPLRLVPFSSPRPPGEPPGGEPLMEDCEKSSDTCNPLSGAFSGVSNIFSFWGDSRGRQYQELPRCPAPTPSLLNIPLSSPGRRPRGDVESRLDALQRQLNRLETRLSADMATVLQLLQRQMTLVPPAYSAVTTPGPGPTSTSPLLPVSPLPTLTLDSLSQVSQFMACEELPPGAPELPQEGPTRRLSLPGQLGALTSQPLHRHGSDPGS
# Cytochrome P450 2C9, sequence (P11712 whole entry): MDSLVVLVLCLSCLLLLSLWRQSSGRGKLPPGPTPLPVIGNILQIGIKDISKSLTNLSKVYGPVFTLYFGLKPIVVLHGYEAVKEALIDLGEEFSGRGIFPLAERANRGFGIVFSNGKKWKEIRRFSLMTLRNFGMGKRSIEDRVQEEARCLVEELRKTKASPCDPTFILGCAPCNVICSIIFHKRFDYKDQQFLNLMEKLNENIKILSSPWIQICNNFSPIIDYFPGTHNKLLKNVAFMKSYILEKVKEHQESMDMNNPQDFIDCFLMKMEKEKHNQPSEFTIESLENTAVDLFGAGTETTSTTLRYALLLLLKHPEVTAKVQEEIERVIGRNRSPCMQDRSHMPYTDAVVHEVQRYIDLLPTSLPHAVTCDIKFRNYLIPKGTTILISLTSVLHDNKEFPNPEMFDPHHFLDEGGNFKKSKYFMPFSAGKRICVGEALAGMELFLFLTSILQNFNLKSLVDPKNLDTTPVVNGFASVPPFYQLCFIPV
IC50 [1] [µM],IC50 [2] [µM],clearance [3] [mL/min/kg],bioavailability [4] [%],logD (physchem [6]),IC50 [7] [µM],IC50 [8] [µM],solubility (physchem [9]) [µM],fraction unbound [10],IC50 (Cytochrome P450 2C9) [µM],Vd [11] [L/kg],Papp A→B [12] [×10⁻⁶ cm/s],Papp B→A [13] [×10⁻⁶ cm/s],Structure (SMILES),IC50 [5] [µM]
9.2,> 10,32,18,1.34,,,,,,,,,O=S(=O)(Cc1cc(N2CCOCC2)nc(-c2ccccn2)n1)c1ccccc1,> 32
1.03,,4,43,,0.262,0.98,48,,,,,,CS(=O)(=O)Cc1cc(N2CCOCC2)nc(-c2cnc3[nH]ccc3c2)n1,> 32
5.7,,4,3,2.1,,,6.2,0.193,5,0.4,37,34,CS(=O)(=O)Cc1cc(N2CCOCC2)nc(-c2ccc3[nH]ccc3c2)n1,> 32
> 80,,,,< 0.5,3.16,> 90,,,,,,,O=S(=O)(CCc1cnccn1)Cc1cc(N2CCOCC2)nc(-c2ccccn2)n1,
> 30,,,,,1.54,36.7,,,,,,,CC(C)S(=O)(=O)Cc1cc(N2CCOCC2)nc(-c2ccccn2)n1,
12.4,,,,,1.38,7.6,,,,,,,O=S(=O)(Cc1cc(N2CCOCC2)nc(-c2ccccn2)n1)c1ccc(F)cc1,
> 30,> 10,11,97,1.94,5,> 1000,,0.28,,,,,CS(=O)(=O)Cc1cc(N2CCOCC2)nc(-c2ccccc2)n1,
,,,,,> 100,> 24,,,,,,,Cn1ccc2cc(-c3nc(CS(C)(=O)=O)cc(N4CCOCC4)n3)ccc21,
6.3,,,,1.7,1.46,14.3,13,0.301,,,,,CS(=O)(=O)Cc1cc(N2CCOCC2)nc(-c2cccc3[nH]ccc23)n1,> 33
3.4,,25,41,,0.601,2.05,,0.447,,,,,CS(=O)(=O)Cc1cc(N2CCOCC2)nc(-c2cccc(CO)c2)n1,
,,,,,22.5,> 300,,,,,,,COCc1cccc(-c2nc(CS(C)(=O)=O)cc(N3CCOCC3)n2)c1,
7.2,,37,10,,0.285,1.06,,,,,,,CS(=O)(=O)Cc1cc(N2CCOCC2)nc(-c2ccc3[nH]cnc3c2)n1,> 32
1.88,,36,33,2.4,,22.9,192,0.167,,,,,C[C@H]1COCCN1c1cc(CS(C)(=O)=O)nc(-c2ccc3[nH]ccc3c2)n1,
3.1,,,,,,5.3,,,,,,,C[C@@H]1COCCN1c1cc(CS(C)(=O)=O)nc(-c2ccc3[nH]ccc3c2)n1,
1.9,,,,,0.252,> 48,1.5,0.22,,,,,CS(=O)(=O)Cc1cc(N2CC3CCC(C2)O3)nc(-c2ccc3[nH]ccc3c2)n1,> 32
> 20,,15,38,0.85,,> 100,11,> 0.66,,,,,CS(=O)(=O)Cc1cc(N2CCOCC2)nc(-c2ccc(NS(C)(=O)=O)cc2)n1,
5.1,,,,1.74,0.037,> 100,,0.32,,,,,CS(=O)(=O)Cc1cc(N2CCOCC2)nc(NC(=O)c2ccno2)n1,
,,,,> 3.2,,,,,,,,,CS(=O)(=O)Cc1cc(N2CCOCC2)nc(-c2ccc(NC(=O)Nc3ccc(F)cc3)cc2)n1,
